{
  "source": "patent US20200289434A1",
  "about": "“RAPIDLY IMPROVING ENDOTHELIAL FUNCTION, REDUCING ARTERIAL STIFFNESS AND REVERSING CALCIFICATION OF BLOOD VESSELS BY ADMINISTERING VITAMIN K” (KAYDENCE PHARMA AS, priority 2019, published 2020)",
  "key": {"[1]": {"test_system": "kidney transplantation patients", "experiment": "Clinical study: pulse wave velocity measurement of arterial stiffness", "format": "in vivo, human", "conditions": "kidney transplant patients, 360 ug/day, 8 weeks", "experimental": "Clinical Study to study the efficacy and safety of Vitamin K2 supplementation on arterial stiffness, the rigidity of arterial walls, in kidney transplantation patients.\nA clinical study was carried out. Arterial wall property measurements were taken at t=0 and t=8 weeks and show a dramatic improvement in arterial wall flexibility. This is good support for concluding that the ingestion of vitamin K, even over this short period, is an effective way of improving endothelial function, reducing arterial stiffness and reducing calcification. […] It is surprising and unexpected because calcification is a slow progressive process and it was thought that reversing this process would also be slow and progressive.\n(§1) Participants were enrolled in a clinical trial in which the effects of vitamin K2 were determined for patients who had recently undergone a kidney transplant. At the beginning of the study, patients were subjected to a non-invasive pulse wave velocity measurement to measure arterial stiffness/flexibility, as well as blood analysis. The study participants were then instructed to receive a specific daily dose of MenaQ7 vitamin K2 menaquinone-7 (360 ug/day) for a total of 8 weeks. At the end of 8 weeks, patients were again examined with a follow-up examination, a non-invasive pulse wave velocity measurement and blood analysis and drug treatment was discontinued."}, "matrix gla protein (MGP)": {"test_system": "matrix gla protein (MGP)", "experiment": "Clinical study: blood analysis of matrix gla protein carboxylation", "format": "in vivo, human", "conditions": "kidney transplant patients, 360 ug/day, 8 weeks", "experimental": "as §1\nAs part of the blood analysis, carboxylated matrix gla protein (MGP) was measured as a direct measure of vitamin K2 activity. The carboxylated MGP inhibits calcification of blood vessels and Vitamin K2 stimulates carboxylation of MGP."}, "[2]": {"experiment": "Example 3 second part: lipid profile, liver enzymes and blood count", "conditions": "eight weeks"}, "[3]": {"conditions": "mouse, in vivo"}, "ApoE/LDLR−/− mice [4]": {"test_system": "ApoE/LDLR−/− mice", "experiment": "Example 3 first part: MRI assessment of endothelium-dependent vasodilatation (FMD in FA, Ach in AA), young mice", "format": "in vivo", "experimental": "Mice were randomly assigned to one of four experimental groups: control (untreated group) and three groups treated with vitamin K2 at a dose of 0.05, 0.5, and 5 mg/kg b.w./day, respectively. End-point measurements were performed at the age of 10-16 weeks.\n(§2) Magnetic resonance imaging (MRI) experiments were performed using a 9.4T scanner (BioSpec 94/20 USR, Bruker, Germany) located in the Department of Magnetic Resonance Imaging, Institute of Nuclear Physics, Polish Academy of Sciences in Krakow. During the experiment, mice were anaesthetized using isoflurane (Aerrane, Baxter Sp. z o. o., Poland, 1.7 vol %) in an oxygen and air (1:2) mixture and imaged in the supine position. Activity of the heart, respiration, and body temperature (maintained at 37° C. using circulating warm water) were monitored using a Monitoring and Gating System (SA Inc., Stony Brook, N.Y., USA).\n(§3) Endothelial function was assessed based on vascular responses to acetylcholine (Ach) administration in brachiocephalic artery (BCA), left common carotid artery (LCA) (FIGS. 6 A and B) and abdominal aorta (AA) (FIG. 6C) as well as to responses to increase in flow (flow-mediated dilatation, FMD) in femoral artery (FA) (FIG. 6D) as described in Bar A, Skorka T, Jasinski K, Sternak M, Bartel Z, Tyrankiewicz U, et al. Retrospectively-gated MRI for in vivo assessment of endothelium-dependent vasodilatation and endothelial permeability in murine models of endothelial dysfunction. NMR Biomed 2016; 29(8):1088.; Sternak M, Bar A, Adamski M G, Mohaissen T, Marczyk B, Kieronska A, et al. The Deletion of Endothelial Sodium Channel α (αENaC) Impairs Endothelium-Dependent Vasodilation and Endothelial Barrier Integrity in Endotoxemia in Vivo. Front Pharmacol 2018; 9:178. doi:10.3389/fphar.2018.00178.; and Bar A, Olkowicz M, Tyrankiewicz U, Kus E, Jasinski K, Smolenski R T, et al. Functional and Biochemical Endothelial Profiling In Vivo in a Murine Model of Endothelial Dysfunction; Comparison of Effects of 1-Methylnicotinamide and Angiotensin-converting Enzyme Inhibitor. Front Pharmacol 2017; 8:183. doi:10.3389/fphar.2017.00183.).\nVasomotor response was examined by comparing two time-resolved 3D images of the vessels prior to and 25 minutes after intraperitoneal Ach administration (Sigma-Aldrich, Poznan Poland: 50 μl, 16.6 mg/kg), as well as prior to and 5 minutes after vessel occlusion. Images were acquired using the cine IntraGate™ FLASH 3D sequence, reconstructed with the IntraGate 1.2.b.2 macro (Bruker). End-diastolic volumes of vessels were analyzed using ImageJ software 1.46r (NIH Bethesda, Md., USA) and scripts written in Matlab (MathWorks, Natick, Mass., USA). Imaging parameters included the following: repetition time (TR)—6.4 ms, echo time (TE)—1.4 ms, field of view (FOV)—30×30×5 mm3, matrix size—256×256×30, flip angle (FA)—30°, and number of accumulations (NA)—15, reconstructed to 7 cardiac frames. Total scan time was 10 minutes."}, "ApoE/LDLR−/− mice [5]": {"test_system": "ApoE/LDLR−/− mice", "experiment": "Example 3 second part: MRI assessment of Ach-induced response in BCA and LCA, older mice", "format": "in vivo", "conditions": "eight weeks, 24-week-old mice", "experimental": "as §2\nas §3, with “Front Pharmacol 2018; 9:178. doi:10.3389/fphar.2018.00178.; and Bar A, Olkowicz M, Tyrankiewicz U, Kus E, Jasinski K, Smolenski R T, et al. Functional and Biochemical Endothelial Profiling In Vivo in a Murine Model of Endothelial Dysfunction; Comparison of Effects of 1-Methylnicotinamide and Angiotensin-converting Enzyme Inhibitor. Front Pharmacol 2017; 8:183. doi:10.3389/fphar.2017.00183.).” left out\nVasomotor response was examined by comparing two time-resolved 3D images of the vessels prior to and 25 minutes after intraperitoneal Ach administration (Sigma-Aldrich, Poznan Poland: 50 μl, 16.6 mg/kg), as well as prior to and 5 minutes after vessel occlusion. […] End-diastolic volumes of vessels were analyzed using ImageJ software 1.46r (NIH Bethesda, Md., USA) and scripts written in Matlab (MathWorks, Natick, Mass., USA). […]"}, "[6]": {"conditions": "0.05 mg/kg b.w./day, eight weeks"}, "[7]": {"conditions": "0.05 mg/kg b.w./day, four weeks, 15-week-old mice"}},
  "note": "Values joined by “and” are separate entries in the source; they are usually repeats but may differ in a detail not shown here. Equal values may be shown once.",
  "data": [
    {"smiles": "CC(C)=CCC/C(C)=C/CC/C(C)=C/CC/C(C)=C/CC/C(C)=C/CC/C(C)=C/CC/C(C)=C/CC1=C(C)C(=O)c2ccccc2C1=O", "note": "[MK-7, menaquinone-7]", "values": [
      {"measurement": "mean reduction in measured pulse-wave velocity", "setting": "[1]", "value": 30, "unit": "%"},
      {"measurement": "mean reduction of levels of uncarboxylated MGP", "setting": "matrix gla protein (MGP)", "value": 55, "unit": "%"},
      {"measurement": "MPV", "setting": "[2]; 0.03 mg/kg", "value": "5.20 ± 0.33"},
      {"measurement": "MPV", "setting": "[2]; 10 mg/kg", "value": "4.97 ± 0.19"},
      {"measurement": "lipid profile, liver enzymes concentration, blood cell count", "setting": "[3]", "value": "did not affect"},
      {"measurement": "Ach response in AA, volume change", "setting": "ApoE/LDLR−/− mice [4]; [6]", "value": "−0.65", "unit": "%"},
      {"measurement": "FMD in FA, volume change", "setting": "ApoE/LDLR−/− mice [4]; [6]", "value": 28.34, "unit": "%"},
      {"measurement": "Ach response in AA, volume change", "setting": "ApoE/LDLR−/− mice [4]; [7]", "value": "−1.59", "unit": "%"},
      {"measurement": "FMD in FA, volume change", "setting": "ApoE/LDLR−/− mice [4]; [7]", "value": 33.26, "unit": "%"},
      {"measurement": "endothelial function (FMD-FA and ACH-AA)", "setting": "ApoE/LDLR−/− mice [4]; 0.05 mg/kg b.w./day, two weeks", "value": "not sufficient to improve endothelial function"},
      {"measurement": "Ach response in AA, volume change", "setting": "ApoE/LDLR−/− mice [4]; 0.5 mg/kg b.w./day, two weeks", "value": 1.52, "unit": "%"},
      {"measurement": "FMD in FA, volume change", "setting": "ApoE/LDLR−/− mice [4]; 0.5 mg/kg b.w./day, two weeks", "value": 28.57, "unit": "%"},
      {"measurement": "Ach response in AA, volume change", "setting": "ApoE/LDLR−/− mice [4]; 5 mg/kg b.w./day, two weeks", "value": 0.16, "unit": "%"},
      {"measurement": "FMD in FA, volume change", "setting": "ApoE/LDLR−/− mice [4]; 5 mg/kg b.w./day, two weeks", "value": 26.55, "unit": "%"},
      {"measurement": "improvement in endothelial function compared with low dose for 4 weeks", "setting": "ApoE/LDLR−/− mice [4]; 0.5 and 5 mg/kg b.w./day, four weeks", "value": "not superior"},
      {"measurement": "change in volume of BCA after Ach injection", "setting": "ApoE/LDLR−/− mice [5]; high dose 10 mg/kg b.w/day", "value": 3.12, "unit": "%"},
      {"measurement": "change in volume of LCA after Ach injection", "setting": "ApoE/LDLR−/− mice [5]; high dose 10 mg/kg b.w/day", "value": 4.45, "unit": "%"},
      {"measurement": "change in volume of LCA after Ach injection", "setting": "ApoE/LDLR−/− mice [5]; low dose 0.03 mg/kg b.w/day, listed as vitamin K2, 0.03 mg/kg/day", "value": "~−3% and −3.92%"}
    ]}
  ]
}
